GI50 and TGI data for eight molecules are collected here from PubChem BioAssay (NCI).

Test systems include DU-145 prostate; OVCAR-8 ovarian; NCI-H522 lung; HCC-2998 colon; U251 CNS; MOLT-4 leukemia; OVCAR-3 ovarian; CAKI-1 renal; UO-31 renal; OVCAR-4 ovarian.
Common to all, as to assay: NCI tumour cell line growth inhibition, 48 h

Where “and” joins values, the source holds several entries; their conditions need not be identical. Equal entries are not always repeated.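 Cultured in 96-well plates, cells were exposed to test compound for 48 hours across five concentrations. GI50 is the concentration that inhibits growth by half. TGI marks complete inhibition of growth.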 A value given as a limit tells only on which side of the number the result lay.

Consider `CCCCCCSSC(=S)N(CC)CC`, for which the GI50 in the experiment with DU-145 prostate was 28.7 µM; in the experiment on OVCAR-8 ovarian it was 20 µM; in the experiment with NCI-H522 lung, 1.66 µM; in the experiment with HCC-2998 colon, 29.7 µM; in the experiment with U251 CNS, 14.2 µM; with MOLT-4 leukemia, 17.7 µM. For the same molecule, the GI50 in the experiment on OVCAR-3 ovarian was 17.8 µM; in the experiment on CAKI-1 renal, 16.3 µM; in the experiment on UO-31 renal it was 18.1 µM; in the experiment on OVCAR-4 ovarian, 15.1 µM. For the same molecule, the TGI worked out at 92.9 µM in the experiment with DU-145 prostate; 46.6 µM in the experiment with OVCAR-8 ovarian; 21.3 µM in the experiment with NCI-H522 lung; 91.5 µM in the experiment with HCC-2998 colon; 30.6 µM in the experiment with U251 CNS; 44.5 µM in the experiment on MOLT-4 leukemia. Besides, the TGI with OVCAR-3 ovarian was determined as 34.3 µM; in the experiment on CAKI-1 renal, 36.1 µM; in the experiment with UO-31 renal, 34.9 µM; in the experiment with OVCAR-4 ovarian, 28.8 µM.

Take `Cc1cc(-c2c(F)cc3c4nn([C@H]5CC[C@@H](N(C)C)CC5)c(=O)c-4cn(C4CC4)c3c2F)cc(C)n1`: the TGI in the experiment with DU-145 prostate was 8.71 µM; in the experiment with OVCAR-8 ovarian, 0.808 µM; in the experiment on NCI-H522 lung it was 0.144 µM and 0.771 µM; in the experiment with HCC-2998 colon it was 0.108 µM and 1.01 µM; in the experiment on U251 CNS, 0.814 µM; with OVCAR-3 ovarian it was 2.66 µM. For the same molecule, the TGI was 0.346 µM and 1.11 µM with CAKI-1 renal; 0.566 µM and 3.29 µM in the experiment with UO-31 renal. The GI50 in the experiment on NCI-H522 lung is 0.0325 µM; in the experiment with HCC-2998 colon it was 0.0369 µM; in the experiment with MOLT-4 leukemia, 0.002 µM; in the experiment on CAKI-1 renal, 0.185 µM; in the experiment on UO-31 renal it was 0.275 µM; with OVCAR-4 ovarian it was 0.316 µM.

Turning to `CCCCC#Cc1c(I)n(C)c(=O)[nH]c1=O`, the GI50 with DU-145 prostate is 4.42 µM; with OVCAR-8 ovarian, 3.36 µM; with NCI-H522 lung, 1.56 µM; with HCC-2998 colon it was 1.58 µM; in the experiment on U251 CNS, 2.42 µM; in the experiment with MOLT-4 leukemia, 2.73 µM. For the same molecule, the GI50 in the experiment with OVCAR-3 ovarian is 1.54 µM; with UO-31 renal, 2.59 µM; with OVCAR-4 ovarian it was 1.76 µM. Also, the TGI came to 15.4 µM with DU-145 prostate; 10.1 µM with OVCAR-8 ovarian; 3.25 µM with NCI-H522 lung; 2.93 µM in the experiment with HCC-2998 colon; 6.85 µM with U251 CNS; 13.9 µM in the experiment with MOLT-4 leukemia. Further, the TGI in the experiment on OVCAR-3 ovarian amounted to 2.88 µM; in the experiment on CAKI-1 renal, 0.0843 µM; in the experiment on UO-31 renal it was 10.2 µM; in the experiment with OVCAR-4 ovarian it was 3.15 µM.

As for `COc1ccc(-c2cncn2-c2cc(OC)c(OC)c(OC)c2)cc1`, the GI50 with DU-145 prostate is 0.151 µM; with OVCAR-8 ovarian, 1.07 µM; in the experiment with NCI-H522 lung, 0.019 µM; in the experiment on HCC-2998 colon, 0.0779 µM; with U251 CNS it was 0.412 µM; in the experiment with MOLT-4 leukemia, 1.87 µM. The GI50 with OVCAR-3 ovarian was 0.0282 µM; in the experiment with CAKI-1 renal, 0.051 µM; in the experiment on UO-31 renal, 0.0936 µM; with OVCAR-4 ovarian, greater than 36.3 µM. The TGI was 9.92 µM with DU-145 prostate; greater than 51.3 µM with OVCAR-8 ovarian; 0.283 µM in the experiment with NCI-H522 lung; 1.37 µM in the experiment with HCC-2998 colon; greater than 46.4 µM in the experiment with U251 CNS; greater than 77 µM with MOLT-4 leukemia. Also, the TGI in the experiment with OVCAR-3 ovarian is 0.0641 µM; in the experiment with CAKI-1 renal it was 1.85 µM; with UO-31 renal it was 18.2 µM; with OVCAR-4 ovarian, greater than 100 µM.

In the case of `CS(=O)(=O)OCCCNCCCOS(C)(=O)=O`, the TGI in the experiment with DU-145 prostate was found to be 6440 µM; with OVCAR-8 ovarian, 6630 µM; with NCI-H522 lung it was 5510 µM; with HCC-2998 colon it was 3670 µM; in the experiment with U251 CNS it was 5460 µM; with MOLT-4 leukemia, 2340 µM. Besides, the TGI in the experiment with OVCAR-3 ovarian stood at 7600 µM; with CAKI-1 renal, 4280 µM; with UO-31 renal it was 6430 µM; in the experiment with OVCAR-4 ovarian, 5360 µM.

For `CS(=O)(=O)c1ccc(Nc2nc(N[C@H]3CCCC[C@H]3N)nc3cc[nH]c(=O)c23)cc1`, the GI50 was 2.03 µM with DU-145 prostate; 2.68 µM in the experiment on OVCAR-8 ovarian; 0.268 µM in the experiment on NCI-H522 lung; 1.52 µM in the experiment with HCC-2998 colon; 0.664 µM in the experiment with U251 CNS; 2.95 µM in the experiment on MOLT-4 leukemia. For the same molecule, the GI50 in the experiment on OVCAR-3 ovarian is 1.3 µM; with CAKI-1 renal, 11.7 µM; in the experiment on UO-31 renal it was 19.7 µM; with OVCAR-4 ovarian, 1.89 µM. For the same molecule, the TGI in the experiment with DU-145 prostate amounted to 10.4 µM; with OVCAR-8 ovarian, 20.3 µM; with NCI-H522 lung, 1.72 µM; in the experiment with HCC-2998 colon, 4.49 µM; in the experiment on U251 CNS, 21.1 µM; in the experiment with MOLT-4 leukemia it was 17.5 µM. For the same molecule, the TGI was 4.67 µM in the experiment on OVCAR-3 ovarian, 36.3 µM with CAKI-1 renal, 72.9 µM in the experiment with UO-31 renal and 9.81 µM with OVCAR-4 ovarian.

On to `COc1ccc(C(=O)c2cc(C)c(OC)c(C)c2)c(OC)c1NC(C)=O`, for which the GI50 in the experiment with DU-145 prostate is 0.0483 µM; in the experiment on OVCAR-8 ovarian it was 0.419 µM; with NCI-H522 lung, 0.157 µM; with HCC-2998 colon it was 0.31 µM; with U251 CNS, 0.353 µM; in the experiment with MOLT-4 leukemia, 3.13 µM. Besides, the GI50 with OVCAR-3 ovarian was 0.483 µM; in the experiment with CAKI-1 renal, 0.0639 µM; in the experiment with UO-31 renal, 0.167 µM; in the experiment on OVCAR-4 ovarian it was 7.68 µM. In addition, the TGI in the experiment with DU-145 prostate, in the experiment with OVCAR-8 ovarian, in the experiment with HCC-2998 colon, in the experiment on U251 CNS, in the experiment with MOLT-4 leukemia and in the experiment with CAKI-1 renal was greater than 100 µM each time. Further, the figures for the TGI in the experiment on UO-31 renal and in the experiment on OVCAR-4 ovarian were greater than 63.1 µM and greater than 100 µM, respectively.

For the molecule `COc1ccc(-c2cc3c(C)nc(N)nc3n(C3CCC(OCCO)CC3)c2=O)cn1` (stereo unspecified), the GI50 was 0.153 µM and 0.106 µM in the experiment on DU-145 prostate; 0.141 µM and 0.128 µM in the experiment on OVCAR-8 ovarian; 0.052 µM and 0.0337 µM in the experiment with NCI-H522 lung; 0.0941 µM and 0.13 µM in the experiment with HCC-2998 colon; 0.181 µM and 0.162 µM in the experiment with U251 CNS; 0.0677 µM and 0.0626 µM in the experiment on MOLT-4 leukemia. The GI50 was 0.0614 µM and 0.0395 µM with OVCAR-3 ovarian; 0.0379 µM and 0.0866 µM in the experiment on CAKI-1 renal; 0.0265 µM and 0.0169 µM in the experiment with UO-31 renal; 0.14 µM and 0.114 µM with OVCAR-4 ovarian. The TGI in the experiment with DU-145 prostate is > 10 µM and 8.28 µM; in the experiment with OVCAR-8 ovarian, 2.36 µM and 1.41 µM; with NCI-H522 lung, 0.8 µM and 0.386 µM; in the experiment on HCC-2998 colon, 1.8 µM and 1.71 µM; with U251 CNS it was 2.75 µM and 1.9 µM; with MOLT-4 leukemia, > 10 µM and 7.35 µM. The TGI was 0.486 µM and 0.427 µM in the experiment with OVCAR-3 ovarian; 0.38 µM and 0.575 µM with CAKI-1 renal; 0.378 µM and 0.492 µM in the experiment on UO-31 renal; 2.06 µM and 0.841 µM with OVCAR-4 ovarian.
